Where two headings read alike, the source gives them in different places.

Data set [1] addresses T1, recombinant rat protein tyrosine phosphatase, PTP1B (rPTP1B) (Rattus norvegicus, UniProt P20417).
T1 sequence (P20417 1-432): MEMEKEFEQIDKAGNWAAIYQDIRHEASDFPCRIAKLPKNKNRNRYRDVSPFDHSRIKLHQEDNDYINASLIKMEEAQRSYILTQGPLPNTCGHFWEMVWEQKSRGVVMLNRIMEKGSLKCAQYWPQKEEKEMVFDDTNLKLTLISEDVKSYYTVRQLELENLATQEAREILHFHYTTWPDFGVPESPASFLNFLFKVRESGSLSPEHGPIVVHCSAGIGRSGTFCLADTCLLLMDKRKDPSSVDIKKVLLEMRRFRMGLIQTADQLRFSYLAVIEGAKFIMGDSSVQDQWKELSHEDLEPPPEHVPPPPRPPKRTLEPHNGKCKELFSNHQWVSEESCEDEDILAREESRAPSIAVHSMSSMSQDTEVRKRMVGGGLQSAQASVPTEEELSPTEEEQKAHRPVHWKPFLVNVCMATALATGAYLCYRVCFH
Format: biochemical. The following applies: rPTP1B; for IC50: read-out: IC50.

Data set [2] has as its target T2, Human recombinant PTP1B (hPTP1B) (Homo sapiens, UniProt P18031).
T2 construct: made in house
T2 sequence (P18031 1-435): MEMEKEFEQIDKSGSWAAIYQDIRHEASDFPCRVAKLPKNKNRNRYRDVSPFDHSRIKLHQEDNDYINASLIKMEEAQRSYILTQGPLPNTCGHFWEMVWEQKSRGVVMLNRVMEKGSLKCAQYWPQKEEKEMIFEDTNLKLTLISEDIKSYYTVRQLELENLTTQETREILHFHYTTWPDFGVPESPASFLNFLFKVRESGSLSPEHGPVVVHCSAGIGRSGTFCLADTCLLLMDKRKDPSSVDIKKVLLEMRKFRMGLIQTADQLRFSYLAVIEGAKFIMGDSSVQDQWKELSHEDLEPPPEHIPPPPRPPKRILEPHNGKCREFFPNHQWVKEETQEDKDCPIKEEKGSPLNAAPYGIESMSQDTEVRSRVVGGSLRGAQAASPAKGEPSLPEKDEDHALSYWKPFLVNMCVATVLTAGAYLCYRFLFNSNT
Format: biochemical. Conditions: hPTP1B.

Data set [3] relates to diabetic (ob/ob) mice. Nature of the data set: Blood glucose lowering activity in diabetic (ob/ob) mice. Format: in vivo. Conditions: Mus musculus, po. On the procedure:
The procedures used and results obtained are briefly described below. […]
In each test procedure, mice [Male or female ob/ob (C57 B1/6J) and their lean litermates (ob/+ or +/+, Jackson Laboratories) ages 2 to 5 months (10 to 65 g)] of a similar age were randomized according to body weight into 4 groups of 10 mice. The mice were housed 5 per cage and are maintained on normal rodent chow with water ad libitum. Mice received test compound daily by gavage (suspended in 0.5 ml of 0.5% methyl cellulose); dissolved in the drinking water; or admixed in the diet. The dose of compounds given ranges from 2.5 to 200 mg/kg body weight/day. The dose is calculated based on the fed weekly body weight and is expressed as active moiety. […] Control mice received vehicle only.
On the morning of Day 4, 7 or 14 two drops of blood (approximetly 50 ul) were collected into sodium fluoride containing tubes either from the tail vein or after decapitation. For those studies in which the compound was administered daily by gavage the blood samples were collected two hours after compound administration. […]
Analysis of variance followed by Dunett's Comparison Test (one-tailed) are used to estimate the significant difference between the plasma glucose values from the control group and the individual compound treated groups (CMS SAS Release 5.18).

In data set [4] the target is rat hepatic microsomal PTPases. Conditions: rat hepatic microsomal PTPase; for IC50: dodecaphosphopeptide substrate 50 uM; for % Change from Control at 50 μM: 50 μM compound.
Data set [5] has as its system Human recombinant PTP1B (hPTP1B). Type of data set: biochemical.
Where [6] appears, read: 96 h, plasma glucose on Day 4, 7 or 14, suffix a = no significant activity at this dose, read-out: % Change Glucose from Vehicle.
The mark [7] stands for this setting: suffix a = no significant activity at this dose, read-out: % Change Insulin from Vehicle.

As for `CCCCc1oc2ccccc2c1Cc1cc(Br)c(OCC(=O)O)c(Br)c1` [Example 7], the melting point lay in the range of 118 to 119 °C. Moreover, the “% change from control at 10 μM” value in data set [1] (10 μM compound) is reported as −99 (rPTP1B) %. Also, in data set [2], the IC50 amounted to 1400 nM. For the same molecule, in data set [3] (setting [6]), the change in vivo at 100 mg/kg is -29.4%. The change in vivo at 100 mg/kg in data set [3] (setting [7]) was -13.1%. The molecule further yielded an IC50 in data set [4] of 22700 nM.
`CCCCc1oc2ccccc2c1C(=O)c1cc(I)c(O)c(I)c1` [Example 16, (2-Butyl-benzofuran-3-yl)-(4-hydroxy-3,5-diiodo-phenyl)-methanone]: the IC50 worked out at 190 nM in data set [1], 2600 nM in data set [2] and 15300 nM in data set [4]. The change in vivo at 100 mg/kg in data set [3] (setting [6]) was -51.8%; in data set [3] (setting [7]), -73.7%.
`O=C(c1cc(Br)c(O)c(Br)c1)c1c(Cc2ccccc2)sc2ccccc12` [Example 11, (2-Benzyl-benzo[b]thiophen-3-yl)-(3,5-dibromo-4-hydroxy-phenyl)-methanone] came in with a melting point of 155.5 to 156.5 °C. In addition, the IC50 in data set [1] came out at 3970 nM. In addition, the IC50 in data set [2] came to 1940 nM. Also, in data set [3] (setting [6]), the change in vivo at 100 mg/kg is -30.3%. The change in vivo at 100 mg/kg in data set [3] (setting [7]) was -53.2%. Moreover, the IC50 in data set [4] is 33900 nM.
Consider `[Na+].[Na+].[Na+].[O]=[V]([O-])([O-])[O-]` [Sodium orthovanadate, reference compound], for which the “% change from control at 10 μM” value in data set [5] is on record as 244.8%.
With “Ammonium molybdate tetrahydrate [reference compound]”, in data set [5] (reference standards, enzyme form (rPTP1B/hPTP1B) not given), the “% change from control at 10 μM” value came to 8.7%.
For `CCCCc1oc2ccccc2c1C(=O)c1cc(Br)c(O[C@H](Cc2ccccc2)C(=O)O)c(Br)c1` [Example 22, (R)-2-[2,6-dibromo-4-(2-butyl-benzofuran-3-carbonyl)-phenoxy]-3-phenyl-propionic acid], the melting point was 56 to 58 °C. Further, the IC50 in data set [2] was 1150 nM. For the same molecule, in data set [4], the “% Change from Control at 50 μM” value is listed as −77%.
For `CCCCc1oc2ccccc2c1Cc1cc(Br)c(O[C@H](Cc2ccccc2)C(=O)O)c(Br)c1` [Example 23, (R)-2-[2,6-dibromo-4-(2-butyl-benzofuran-3-ylmethyl)-phenoxy]-3-phenyl-propionic acid] the same measures were 225 to 226 °C, 870 nM and −85%.

One may read the IC50 as the midpoint of a concentration-inhibition curve. In general, melting point refers to the temperature of the solid-liquid transition.
